# Molecular target: p38 MAP-kinase (Homo sapiens, UniProt Q16539)
# Assay: Enzymatic assay: inhibition of p38 MAP-kinase (phosphorylation of GST-tagged ATF2, chemoluminescence bead readout)
# Format: biochemical
# Details: inhibitor 1 μM; activated p38 MAP-kinase 1 nM; 4 h preincubation; ATP 100 μM; ATF2 10 nM; read-out: % inhibitory effect at 1 μM
# Summary of the method: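 Activated human p38 MAP-kinase (1 nM) preincubated 4 h at ambient temperature with compound at 1 μM in HEPES pH 7, MgCl2, DTT, Tween20. Then reacted 1 h with GST-ATF2 (10 nM) and ATP (100 μM). Phospho-ATF2 read by bead chemoluminescence at 520-620 nm, given as % inhibition at 1 μM versus kinase-free background.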
# Chain of p38 MAP-kinase (Q16539 whole entry): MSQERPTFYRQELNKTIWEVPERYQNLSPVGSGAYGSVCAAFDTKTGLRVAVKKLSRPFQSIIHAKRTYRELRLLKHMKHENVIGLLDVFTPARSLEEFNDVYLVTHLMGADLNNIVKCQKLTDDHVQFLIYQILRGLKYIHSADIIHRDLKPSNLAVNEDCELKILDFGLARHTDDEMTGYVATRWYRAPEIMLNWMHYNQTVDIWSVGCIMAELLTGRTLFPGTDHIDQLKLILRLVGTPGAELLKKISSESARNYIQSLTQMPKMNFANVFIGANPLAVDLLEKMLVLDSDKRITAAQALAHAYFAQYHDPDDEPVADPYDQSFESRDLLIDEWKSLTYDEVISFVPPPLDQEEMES
row,Structure (SMILES),inhibition at 1 µM
1,"COc1c(NC(=O)c2ccc(C)c(Oc3ccnc(CC4CCCNCC4)n3)c2)cc(C(C)(C)C)cc1NS(C)(=O)=O (stereo not drawn) [5(53), 3-(2-azepan-4-ylmethyl-pyrimidin-4-yloxy)-N-(5-tert-butyl-3-methanesulphonylamino-2-methoxy-phenyl)-4-methyl-benzamide]",97%
2,"COc1c(NC(=O)c2ccc(C)c(Oc3cc(CC4CCCNCC4)ncn3)c2)cc(C(C)(C)C)cc1NS(C)(=O)=O (stereo not drawn) [5(54), 3-(6-azepan-4-ylmethyl-pyrimidin-4-yloxy)-N-(5-tert-butyl-3-methanesulphonylamino-2-methoxy-phenyl)-4-methyl-benzamide]",99.7%
3,"COc1c(NC(=O)c2ccc(C)c(Oc3ccnc(CC4CCNCC4)c3)c2)cc(C(F)(F)C(F)(F)F)cc1NS(C)(=O)=O [5(55), N-(3-methanesulphonylamino-2-methoxy-5-pentafluoroethyl-phenyl)-4-methyl-3-(2-piperidin-4-ylmethyl-pyridin-4-yloxy)-benzamide]",99.6%
4,"COc1c(NC(=O)c2ccc(C)c(Oc3cc(C(=O)N4CCN(C)CC4)ncn3)c2)cc(C(C)(C)C)cc1NS(C)(=O)=O [7(2), N-(5-tert-butyl-3-methanesulphonylamino-2-methoxy-phenyl)-4-methyl-3-[6-(4-methyl-piperazine-1-carbonyl)-pyrimidin-4-yloxy]-benzamide]",96.3%
5,"CNCc1cc(Oc2cc(C(=O)Nc3cc(C(C)(C)C)cc(NS(C)(=O)=O)c3OC)ccc2C)ncn1 [8(1), N-(5-tert-butyl-3-methanesulphonylamino-2-methoxy-phenyl)-4-methyl-3-(6-methylaminomethyl-pyrimidin-4-yloxy)-benzamide]",55.9%
6,"COc1c(NC(=O)c2ccc(C)c(Oc3cc(CN4CCNC(=O)C4)ncn3)c2)cc(C(C)(C)C)cc1NS(C)(=O)=O [8(7), N-(5-tert-butyl-3-methanesulphonylamino-2-methoxy-phenyl)-4-methyl-3-[6-(3-oxo-piperazin-1-ylmethyl)-pyrimidin-4-yloxy]-benzamide]",94.1%
7,"COc1c(NC(=O)c2ccc(C)c(Oc3ccnc(CN4CCOCC4)c3)c2)cc(C(C)(C)C)cc1NS(C)(=O)=O [8(9), N-(5-tert-butyl-3-methanesulphonylamino-2-methoxy-phenyl)-4-methyl-3-(2-morpholin-4-ylmethyl-pyridin-4-yloxy)-benzamide]",98.4%
8,"COc1c(NC(=O)c2ccc(C)c(Oc3ccnc(CN[C@H]4CCOC4)c3)c2)cc(C(C)(C)C)cc1NS(C)(=O)=O [8(11), (S)-N-(5-tert-butyl-3-methanesulphonylamino-2-methoxy-phenyl)-4-methyl-3-{2-[(tetrahydro-furan-3-ylamino)-methyl]-pyridin-4-yloxy}-benzamide]",96.7%
9,"COc1c(NC(=O)c2ccc(C)c(Oc3ccnc(CN4CC[C@@H](O)C4)c3)c2)cc(C(C)(C)C)cc1NS(C)(=O)=O [8(12), (R)-N-(5-tert-butyl-3-methanesulphonylamino-2-methoxy-phenyl)-3-[2-(3-hydroxy-pyrrolidin-1-ylmethyl)-pyridin-4-yloxy]-4-methyl-benzamide]",97%
10,"COc1c(NC(=O)c2ccc(C)c(Oc3ccnc(CN4CC[C@H](O)C4)c3)c2)cc(C(C)(C)C)cc1NS(C)(=O)=O [8(13), (S)-N-(5-tert-butyl-3-methanesulphonylamino-2-methoxy-phenyl)-3-[2-(3-hydroxy-pyrrolidin-1-ylmethyl)-pyridin-4-yloxy]-4-methyl-benzamide]",96.8%
11,"CNCc1cc(Oc2cc(C(=O)Nc3cc(C(C)(C)C)cc(NS(C)(=O)=O)c3OC)ccc2C)ccn1 [8(14), N-(5-tert-butyl-3-methanesulphonylamino-2-methoxy-phenyl)-4-methyl-3-(2-methylaminomethyl-pyridin-4-yloxy)-benzamide]",91.1%
12,"COc1c(NC(=O)c2ccc(C)c(Oc3ccnc(CN[C@@H]4CCOC4)c3)c2)cc(C(C)(C)C)cc1NS(C)(=O)=O [8(15), (R)-N-(5-tert-butyl-3-methanesulphonylamino-2-methoxy-phenyl)-4-methyl-3-{2-[(tetrahydro-furan-3-ylamino)-methyl]-pyridin-4-yloxy}-benzamide]",95.9%
13,"COc1c(NC(=O)c2ccc(C)c(Oc3ccnc(CN(C)C4CCN(C)C4)n3)c2)cc(C(C)(C)C)cc1NS(C)(=O)=O (stereo not drawn) [8(19), N-(5-tert-butyl-3-methanesulphonylamino-2-methoxy-phenyl)-4-methyl-3-(2-{[methyl-(1-methyl-pyrrolidin-3-yl)-amino]-methyl}-pyrimidin-4-yloxy)-benzamide]",97%

# More lines, now with the values ahead:
row,inhibition at 1 µM,Structure (SMILES)
1,98.8%,"COc1c(NC(=O)c2cc(F)c(C)c(Oc3ccnc(CN4CCN(C)CC4)n3)c2)cc(C(C)(C)C)cc1NS(C)(=O)=O [7(3), N-(5-tert-butyl-3-methanesulphonylamino-2-methoxy-phenyl)-3-fluoro-4-methyl-5-[2-(4-methyl-piperazin-1-ylmethyl)-pyrimidin-4-yloxy]-benzamide]"
2,98.5%,"COc1c(NC(=O)c2cc(Cl)c(C)c(Oc3ccnc(CN4CCN(C)CC4)n3)c2)cc(C(C)(C)C)cc1NS(C)(=O)=O [7(5), N-(5-tert-butyl-3-methanesulphonylamino-2-methoxy-phenyl)-3-chloro-4-methyl-5-[2-(4-methyl-piperazin-1-ylmethyl)-pyrimidin-4-yloxy]-benzamide]"
3,98.7%,"COc1c(NC(=O)c2ccc(C)c(Oc3cc(CN4CCN(C)CC4)ncn3)c2)cc(C(C)(C)C)cc1NS(C)(=O)=O [8(2), N-(5-tert-butyl-3-methanesulphonylamino-2-methoxy-phenyl)-4-methyl-3-[6-(4-methyl-piperazin-1-ylmethyl)-pyrimidin-4-yloxy]-benzamide]"
4,95.2%,"COc1c(NC(=O)c2ccc(C)c(Oc3ccnc(CN4CCOCC4)n3)c2)cc(C(C)(C)C)cc1NS(C)(=O)=O [8(3), N-(5-tert-butyl-3-methanesulphonylamino-2-methoxy-phenyl)-4-methyl-3-(2-morpholin-4-ylmethyl-pyrimidin-4-yloxy)-benzamide]"
5,66%,"CNCc1nccc(Oc2cc(C(=O)Nc3cc(C(C)(C)C)cc(NS(C)(=O)=O)c3OC)ccc2C)n1 [8(4), N-(5-tert-butyl-3-methanesulphonylamino-2-methoxy-phenyl)-4-methyl-3-(2-methylaminomethyl-pyrimidin-4-yloxy)-benzamide]"
6,95.8%,"COc1c(NC(=O)c2ccc(C)c(Oc3ccnc(CN4CCNC(=O)C4)n3)c2)cc(C(C)(C)C)cc1NS(C)(=O)=O [8(5), N-(5-tert-butyl-3-methanesulphonylamino-2-methoxy-phenyl)-4-methyl-3-[2-(3-oxo-piperazin-1-ylmethyl)-pyrimidin-4-yloxy]-benzamide]"
7,98.7%,"COc1c(NC(=O)c2ccc(C)c(Oc3ccnc(CN4CCN(C)CC4)n3)c2)cc(C(C)(C)C)cc1NS(C)(=O)=O [8(6), N-(5-tert-butyl-3-methanesulphonylamino-2-methoxy-phenyl)-4-methyl-3-[2-(4-methyl-piperazin-1-ylmethyl)-pyrimidin-4-yloxy]-benzamide]"
8,98.9%,"COc1c(NC(=O)c2ccc(C)c(Oc3ccnc(CN4CCN(C)CC4)c3)c2)cc(C(C)(C)C)cc1NS(C)(=O)=O [8(10), N-(5-tert-butyl-3-methanesulphonylamino-2-methoxy-phenyl)-4-methyl-3-[2-(4-methyl-piperazin-1-ylmethyl)-pyridin-4-yloxy]-benzamide]"
9,98.7%,"COc1c(NC(=O)c2ccc(C)c(Oc3ccnc(CN4CCCN(C)CC4)n3)c2)cc(C(C)(C)C)cc1NS(C)(=O)=O [8(16), N-(5-tert-butyl-3-methanesulphonylamino-2-methoxy-phenyl)-4-methyl-3-[2-(4-methyl-homopiperazin-1-ylmethyl)-pyrimidin-4-yloxy]-benzamide]"
10,96.7%,"COc1c(NC(=O)c2ccc(C)c(Oc3ccnc(CNC4CCN(C)CC4)n3)c2)cc(C(C)(C)C)cc1NS(C)(=O)=O [8(17), N-(5-tert-butyl-3-methanesulphonylamino-2-methoxy-phenyl)-4-methyl-3-{2-[(1-methyl-piperidin-4-ylamino)-methyl]-pyrimidin-4-yloxy}-benzamide]"
11,98.6%,"COc1c(NC(=O)c2ccc(C)c(Oc3ccnc(CNC4CCCN(C)C4)n3)c2)cc(C(C)(C)C)cc1NS(C)(=O)=O (stereo not drawn) [8(18), N-(5-tert-butyl-3-methanesulphonylamino-2-methoxy-phenyl)-4-methyl-3-{2-[(1-methyl-piperidin-3-ylamino)-methyl]-pyrimidin-4-yloxy}-benzamide]"
12,99.4%,"COc1c(NC(=O)c2ccc(C)c(Oc3ccnc(CN4CCCN(C)CC4)c3)c2)cc(C(C)(C)C)cc1NS(C)(=O)=O [8(20), N-(5-tert-butyl-3-methanesulphonylamino-2-methoxy-phenyl)-4-methyl-3-[2-(4-methyl-homopiperazin-1-ylmethyl)-pyridin-4-yloxy]-benzamide]"
13,98.5%,"COc1c(NC(=O)c2ccc(C)c(Oc3ccnc(CN4CC[C@H](N(C)C)C4)n3)c2)cc(C(C)(C)C)cc1NS(C)(=O)=O [8(21), (S)-N-(5-tert-butyl-3-methanesulphonylamino-2-methoxy-phenyl)-3-[2-(3-dimethylamino-pyrrolidin-1-ylmethyl)-pyrimidin-4-yloxy]-4-methyl-benzamide]"
14,98.3%,"COc1c(NC(=O)c2ccc(C)c(Oc3ccnc(CN4CC[C@@H](N(C)C)C4)n3)c2)cc(C(C)(C)C)cc1NS(C)(=O)=O [8(22), (R)-N-(5-tert-butyl-3-methanesulphonylamino-2-methoxy-phenyl)-3-[2-(3-dimethylamino-pyrrolidin-1-ylmethyl)-pyrimidin-4-yloxy]-4-methyl-benzamide]"
